Test results: ChEMBL document CHEMBL1201861, “Genomics of Drug Sensitity in Cancer screening data, Wellcome Trust Sanger Institute”

Columns and labels:
Assay in all cases: cells
Format in all cases: functional, cell-based, Homo sapiens
SW1573 = settings: Homo sapiens, SW1573
Description: SANGER: Inhibition of human SW1573 cell growth in a cell viability assay.

TYK-nu = settings: Homo sapiens, TYK-nu
Description: SANGER: Inhibition of human TYK-nu cell growth in a cell viability assay.

FTC-133 = settings: Homo sapiens, FTC-133
S-117 = settings: Homo sapiens, S-117
Description: SANGER: Inhibition of human S-117 cell growth in a cell viability assay.

NCI-H2122 = settings: Homo sapiens, NCI-H2122
Description: SANGER: Inhibition of human NCI-H2122 cell growth in a cell viability assay.

HAL-01 = settings: Homo sapiens, HAL-01
Description: SANGER: Inhibition of human HAL-01 cell growth in a cell viability assay.

Hs-578T = settings: Homo sapiens, Hs-578T
Description: SANGER: Inhibition of human Hs-578-T cell growth in a cell viability assay.

769-P = settings: Homo sapiens, 769-P
Description: SANGER: Inhibition of human 769-P cell growth in a cell viability assay.

Calu-3 = settings: Homo sapiens, Calu-3
Description: SANGER: Inhibition of human Calu-3 cell growth in a cell viability assay.

SCC-9 = settings: Homo sapiens, SCC-9
Description: SANGER: Inhibition of human SCC-9 cell growth in a cell viability assay.

EFM-19 = settings: Homo sapiens, EFM-19
Description: SANGER: Inhibition of human EFM-19 cell growth in a cell viability assay.

LS-411N = settings: Homo sapiens, LS-411N
C32 = settings: Homo sapiens, C32
Description: SANGER: Inhibition of human C32 cell growth in a cell viability assay.

HD-MY-Z = settings: Homo sapiens, HD-MY-Z
Description: SANGER: Inhibition of human HD-MY-Z cell growth in a cell viability assay.

AN3-CA = settings: Homo sapiens, AN3-CA
Description: SANGER: Inhibition of human AN3-CA cell growth in a cell viability assay.

Daoy = settings: Homo sapiens, Daoy
Description: SANGER: Inhibition of human Daoy cell growth in a cell viability assay.

KYSE-140 = settings: Homo sapiens, KYSE-140
Description: SANGER: Inhibition of human KYSE-140 cell growth in a cell viability assay.

CFPAC-1 = settings: Homo sapiens, CFPAC-1
Description: SANGER: Inhibition of human CFPAC-1 cell growth in a cell viability assay.

EW-16 = settings: Homo sapiens, EW-16
Description: SANGER: Inhibition of human EW-16 cell growth in a cell viability assay.

C2BBe1 = settings: Homo sapiens, C2BBe1
Description: SANGER: Inhibition of human C2BBe1 cell growth in a cell viability assay.

DU-4475 = settings: Homo sapiens, DU-4475
Description: SANGER: Inhibition of human DU-4475 cell growth in a cell viability assay.

BEN = settings: Homo sapiens, BEN
Description: SANGER: Inhibition of human BEN cell growth in a cell viability assay.

SK-PN-DW = settings: Homo sapiens, SK-PN-DW
Description: SANGER: Inhibition of human SK-PN-DW cell growth in a cell viability assay.

TE-8 = settings: Homo sapiens, TE-8
Description: SANGER: Inhibition of human TE-8 cell growth in a cell viability assay.

UO-31 = settings: Homo sapiens, UO-31
Description: SANGER: Inhibition of human U031 cell growth in a cell viability assay.

COLO-684 = settings: Homo sapiens, COLO-684
Description: SANGER: Inhibition of human COLO-684 cell growth in a cell viability assay.

KGN = settings: Homo sapiens, KGN
Description: SANGER: Inhibition of human KGN cell growth in a cell viability assay.

NCI-H446 = settings: Homo sapiens, NCI-H446
Description: SANGER: Inhibition of human NCI-H446 cell growth in a cell viability assay.

no-10 = settings: Homo sapiens
Description: SANGER: Inhibition of human no-10 cell growth in a cell viability assay.

MDA-MB-231 = settings: Homo sapiens, MDA-MB-231
Description: SANGER: Inhibition of human MDA-MB-231 cell growth in a cell viability assay.

C-33-A = settings: Homo sapiens, C-33-A
Description: SANGER: Inhibition of human C-33-A cell growth in a cell viability assay.

PANC-08-13 = settings: Homo sapiens, PANC-08-13
Description: SANGER: Inhibition of human PANC-08-13 cell growth in a cell viability assay.

JAR = settings: Homo sapiens, JAR
Description: SANGER: Inhibition of human JAR cell growth in a cell viability assay.

GCIY = settings: Homo sapiens, GCIY
Description: SANGER: Inhibition of human GCIY cell growth in a cell viability assay.

RCC10RGB = settings: Homo sapiens, RCC10RGB
Description: SANGER: Inhibition of human RCC10RGB cell growth in a cell viability assay.

Ca-Ski = settings: Homo sapiens, Ca-Ski
Description: SANGER: Inhibition of human Ca-Ski cell growth in a cell viability assay.

NCI-H1563 = settings: Homo sapiens, NCI-H1563
Description: SANGER: Inhibition of human NCI-H1563 cell growth in a cell viability assay.

ES6 = settings: Homo sapiens, ES6
Description: SANGER: Inhibition of human ES6 cell growth in a cell viability assay.

OE33 = settings: Homo sapiens, OE33
Description: SANGER: Inhibition of human OE33 cell growth in a cell viability assay.

## CCN(CC)CCCCNc1ncc2cc(-c3cc(OC)cc(OC)c3)c(NC(=O)NC(C)(C)C)nc2n1 [PD-173074]
SW1573
  IC50: > 2 µM
TYK-nu
  IC50: > 2 µM
FTC-133
  IC50: > 2 µM
S-117
  IC50: > 2 µM
NCI-H2122
  IC50: > 2 µM
HAL-01
  IC50: > 2 µM
Hs-578T
  IC50: > 2 µM
769-P
  IC50: > 2 µM
Calu-3
  IC50: > 2 µM
SCC-9
  IC50: > 2 µM
EFM-19
  IC50: > 2 µM
LS-411N
  IC50: > 2 µM
C32
  IC50: > 2 µM
HD-MY-Z
  IC50: > 2 µM
AN3-CA
  IC50: 0.401 µM
Daoy
  IC50: > 2 µM
KYSE-140
  IC50: > 2 µM
CFPAC-1
  IC50: > 2 µM
EW-16
  IC50: > 2 µM
C2BBe1
  IC50: > 2 µM
DU-4475
  IC50: > 2 µM
BEN
  IC50: > 2 µM
SK-PN-DW
  IC50: > 2 µM
TE-8
  IC50: > 2 µM
UO-31
  IC50: > 2 µM
COLO-684
  IC50: > 2 µM
KGN
  IC50: > 2 µM
NCI-H446
  IC50: > 2 µM
no-10
  IC50: > 2 µM
MDA-MB-231
  IC50: > 2 µM
C-33-A
  IC50: > 2 µM
PANC-08-13
  IC50: > 2 µM
JAR
  IC50: > 2 µM
GCIY
  IC50: > 2 µM
RCC10RGB
  IC50: > 2 µM
Ca-Ski
  IC50: > 2 µM
NCI-H1563
  IC50: > 2 µM
ES6
  IC50: > 2 µM
OE33
  IC50: > 2 µM
